From PubChem BioAssay AID330 (DTP/NCI, 2004)
Where “and” joins values, the source holds several entries; their conditions need not be identical. Equal values may be shown once. Inconclusive results and toxic doses are left out.

System: P388 leukemia ip, CD2F1 mice, survival T/C
Test: NCI In Vivo Anticancer Drug Screen. Data for tumor model P388 Leukemia (intraperitoneal) in CD2F1 (CDF1) mice
Conditions: endpoint: median survival time, higher = longer survival
Procedure, shortened: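 Mice carrying the transplanted tumor received test compound or vehicle. Survival was recorded in each group, and the value is the treated-group measurement divided by that of the vehicle-treated control group.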

[1] = dose: 60.0 mg/kg/injection, schedule: Q01DX005 (ip), vehicle: saline with Tween-80
[2] = dose: 120.0 mg/kg/injection, schedule: Q01DX005 (ip), vehicle: saline with Tween-80
[3] = dose: 50.0 mg/kg/injection, schedule: Q01DX009 (ip), vehicle: saline
[4] = dose: 100.0 mg/kg/injection, schedule: Q01DX009 (ip), vehicle: saline
[5] = dose: 50.0 mg/kg/injection, schedule: Q01DX009 (ip), vehicle: saline with Tween-80
[6] = dose: 100.0 mg/kg/injection, schedule: Q01DX009 (ip), vehicle: saline with Tween-80
[7] = dose: 200.0 mg/kg/injection, schedule: Q01DX009 (ip), vehicle: saline with Tween-80
[8] = dose: 400.0 mg/kg/injection, schedule: Q01DX009 (ip), vehicle: saline with Tween-80
[9] = dose: 3.13 mg/kg/injection, schedule: Q04DX003 (ip), vehicle: saline
[10] = dose: 6.25 mg/kg/injection, schedule: Q04DX003 (ip), vehicle: saline
[11] = dose: 12.5 mg/kg/injection, schedule: Q04DX003 (ip), vehicle: saline
[12] = dose: 50.0 mg/kg/injection, schedule: Q01DX005 (ip), vehicle: Klucel (hydroxypropylcellulose) (HPC)
[13] = dose: 100.0 mg/kg/injection, schedule: Q01DX005 (ip), vehicle: Klucel (hydroxypropylcellulose) (HPC)
[14] = dose: 25.0 mg/kg/injection, schedule: Q01DX005 (ip), vehicle: saline with Tween-80
[15] = dose: 50.0 mg/kg/injection, schedule: Q01DX005 (ip), vehicle: saline with Tween-80
[16] = dose: 12.5 mg/kg/injection, schedule: Q01DX005 (ip), vehicle: saline with Tween-80
[17] = dose: 50.0 mg/kg/injection, schedule: Q04DX003 (ip), vehicle: saline with Tween-80
[18] = dose: 100.0 mg/kg/injection, schedule: Q04DX003 (ip), vehicle: saline with Tween-80
[19] = dose: 200.0 mg/kg/injection, schedule: Q04DX003 (ip), vehicle: saline with Tween-80
[20] = dose: 400.0 mg/kg/injection, schedule: Q04DX003 (ip), vehicle: saline with Tween-80
[21] = dose: 200.0 mg/kg/injection, schedule: Q01DX005 (ip), vehicle: Klucel (hydroxypropylcellulose) (HPC)
[22] = dose: 12.5 mg/kg/injection, schedule: Q01DX009 (ip), vehicle: saline
[23] = dose: 25.0 mg/kg/injection, schedule: Q01DX009 (ip), vehicle: saline
[24] = dose: 25.0 mg/kg/injection, schedule: Q01DX009 (ip), vehicle: Klucel (hydroxypropylcellulose) (HPC)
[25] = dose: 50.0 mg/kg/injection, schedule: Q01DX009 (ip), vehicle: Klucel (hydroxypropylcellulose) (HPC)
[26] = dose: 100.0 mg/kg/injection, schedule: Q01DX009 (ip), vehicle: Klucel (hydroxypropylcellulose) (HPC)
[27] = dose: 200.0 mg/kg/injection, schedule: Q01DX009 (ip), vehicle: Klucel (hydroxypropylcellulose) (HPC)

## CCc1nc(Cc2ccccc2)nc2c1nc(-c1ccccc1)n2Nc1ccccc1
dose: 100.0 mg/kg/injection, schedule: Q01DX001 (ip), vehicle: saline with Tween-80
  T/C: 92 % of control
dose: 200.0 mg/kg/injection, schedule: Q01DX001 (ip), vehicle: saline with Tween-80
  T/C: 98 % of control
dose: 400.0 mg/kg/injection, schedule: Q01DX001 (ip), vehicle: saline with Tween-80
  T/C: 92 % of control

## c1ccc2c(c1)OC1OC2Oc2ccccc21
[1]
  T/C: 100 % of control
[2]
  T/C: 100 % of control
dose: 240.0 mg/kg/injection, schedule: Q01DX005 (ip), vehicle: saline with Tween-80
  T/C: 101 % of control

## Cc1ccc(S(=O)(=O)C(c2ccccc2)C(Br)C(=O)c2ccccc2)cc1 (centres undefined)
dose: 100.0 mg/kg/injection, schedule: Q04DX003 (ip), vehicle: saline
  T/C: 87 % of control
dose: 200.0 mg/kg/injection, schedule: Q04DX003 (ip), vehicle: saline
  T/C: 88 % of control

## Cc1cnc(Sc2ncccn2)c([N+](=O)[O-])c1
[3]
  T/C: 101 % of control
[4]
  T/C: 104 % of control
dose: 200.0 mg/kg/injection, schedule: Q01DX009 (ip), vehicle: saline
  T/C: 104 % of control

## Cc1cc(=O)[nH]c2nc3ccccc3n12
[5]
  T/C: 95 % of control
[6]
  T/C: 96 % of control
[7]
  T/C: 100 % of control
[8]
  T/C: 104 % of control

## CC(=O)[O-].[NH2-].[NH2-].[NH2-].[NH2-].[NH2-].[O-][Cl+3]([O-])([O-])O.[Ru+8]
[9]
  T/C: 118 % of control
dose: 3.13 mg/kg/injection, schedule: Q04DX003 (ip), vehicle: water
  T/C: 99 % of control
[10]
  T/C: 113 % of control
dose: 6.25 mg/kg/injection, schedule: Q04DX003 (ip), vehicle: water
  T/C: 118 % of control
[11]
  T/C: 111 % of control
dose: 12.5 mg/kg/injection, schedule: Q04DX003 (ip), vehicle: water
  T/C: 120 % of control

## C(CCc1nnc2c(n1)CCCC2)Cc1nnc2c(n1)CCCC2
[1]
  T/C: 99 % of control
[2]
  T/C: 88 % of control

## O=C1NC(=O)C(=Cc2ccc(Cl)cc2)C(=O)N1
[12]
  T/C: 114 % of control
[13]
  T/C: 116 % of control

## S=c1sc2ccccc2n1CN1CCOCC1
[14]
  T/C: 107 % of control
[15]
  T/C: 104 % of control and 114 % of control
dose: 100.0 mg/kg/injection, schedule: Q01DX005 (ip), vehicle: saline with Tween-80
  T/C: 121 % of control and 124 % of control

## O=C(O)CCc1c[nH]c2ccc(N(CCCl)CCCl)cc12
dose: 0.08 mg/kg/injection, schedule: Q04DX003 (ip), vehicle: saline with Tween-80
  T/C: 163 % of control
dose: 0.15 mg/kg/injection, schedule: Q04DX003 (ip), vehicle: saline with Tween-80
  T/C: 100 % of control
dose: 0.25 mg/kg/injection, schedule: Q01DX009 (ip), vehicle: saline
  T/C: 104 % of control
dose: 0.33 mg/kg/injection, schedule: Q04DX003 (ip), vehicle: saline with Tween-80
  T/C: 177 % of control
dose: 0.5 mg/kg/injection, schedule: Q04DX003 (ip), vehicle: saline with Tween-80
  T/C: 177 % of control
dose: 0.75 mg/kg/injection, schedule: Q04DX003 (ip), vehicle: saline with Tween-80
  T/C: 104 % of control

## C/C(=N/NC(=S)NCc1ccccc1)c1ncccn1
[16]
  T/C: 100 % of control
[14]
  T/C: 100 % of control
[15]
  T/C: 105 % of control and 98 % of control

## Cc1cc(C(=O)NCCc2ccc(S(=O)(=O)NC(=O)NCC3CC4CCC3C4)cc2)no1 (centres undefined)
dose: 50.0 mg/kg/injection, schedule: Q01DX001 (ip), vehicle: Klucel (hydroxypropylcellulose) (HPC)
  T/C: 106 % of control
dose: 100.0 mg/kg/injection, schedule: Q01DX001 (ip), vehicle: Klucel (hydroxypropylcellulose) (HPC)
  T/C: 97 % of control
dose: 200.0 mg/kg/injection, schedule: Q01DX001 (ip), vehicle: Klucel (hydroxypropylcellulose) (HPC)
  T/C: 94 % of control

## COC(=O)c1c(COC(=O)NC(C)C)c2n(c1C)CS(=O)(=O)C2
[16]
  T/C: 96 % of control
[14]
  T/C: 95 % of control
[15]
  T/C: 92 % of control

## Nc1nc2n(n1)C(=O)C(=O)N2
[17]
  T/C: 100 % of control
[18]
  T/C: 106 % of control
[19]
  T/C: 103 % of control
[20]
  T/C: 103 % of control

## CC1OC(=O)c2ccccc2S1=O (centres undefined)
[6]
  T/C: 95 % of control
[7]
  T/C: 90 % of control
[8]
  T/C: 95 % of control

## Cn1ccc2c3c(ccc21)C(N1CCOCC1)=CS(=O)(=O)O3
[12]
  T/C: 104 % of control
[13]
  T/C: 98 % of control
[21]
  T/C: 100 % of control

## COc1ccc(C2=CC(=O)N(C(C)C)C2=O)cc1
dose: 12.5 mg/kg/injection, schedule: Q01DX009 (ip), vehicle: saline with Tween-80
  T/C: 107 % of control
dose: 25.0 mg/kg/injection, schedule: Q01DX009 (ip), vehicle: saline with Tween-80
  T/C: 116 % of control
[5]
  T/C: 107 % of control
[6]
  T/C: 108 % of control
[7]
  T/C: 109 % of control

## O=C(C=C(C(F)(F)F)C(F)(F)F)c1cccc(S(=O)(=O)F)c1
[9]
  T/C: 100 % of control
[10]
  T/C: 100 % of control
[11]
  T/C: 95 % of control

## Cc1ccc(C(C)C)c(OCCN)c1
dose: 6.25 mg/kg/injection, schedule: Q01DX009 (ip), vehicle: saline
  T/C: 112 % of control
[22]
  T/C: 110 % of control
[23]
  T/C: 107 % of control
[3]
  T/C: 94 % of control

## O=C1c2ccccc2C(=O)N1CCS(=O)(=O)O
[22]
  T/C: 100 % of control
[23]
  T/C: 104 % of control
[3]
  T/C: 100 % of control
[4]
  T/C: 98 % of control

## Cc1noc2c1N=C(c1ccccc1)CC(c1ccccc1)C2 (centres undefined)
[24]
  T/C: 104 % of control
[25]
  T/C: 104 % of control and 111 % of control
[26]
  T/C: 109 % of control
[27]
  T/C: 109 % of control

## COc1cc(NCCN(C(C)C)C(C)C)c2ncccc2c1
dose: 12.5 mg/kg/injection, schedule: Q01DX005 (ip), vehicle: saline
  T/C: 101 % of control
dose: 25.0 mg/kg/injection, schedule: Q01DX005 (ip), vehicle: saline
  T/C: 93 % of control
dose: 50.0 mg/kg/injection, schedule: Q01DX005 (ip), vehicle: saline
  T/C: 90 % of control and 92 % of control

## Cc1ccccc1[B-]12OCC[N+]1(CNC(=O)c1ccccc1O)CCO2 (centres undefined)
[12]
  T/C: 106 % of control
[13]
  T/C: 105 % of control
[21]
  T/C: 105 % of control

## NNC12CCC(c3ccccc31)c1ccccc12
[17]
  T/C: 95 % of control
[18]
  T/C: 110 % of control
[19]
  T/C: 110 % of control

## CC(C)(C)OC(=O)N1CCCC1C(=O)O (centres undefined)
[12]
  T/C: 100 % of control
[13]
  T/C: 106 % of control
[21]
  T/C: 99 % of control

## CCO/C=C1N=C(/C=C/c2ccc(Cl)cc2)OC/1=O
[1]
  T/C: 91 % of control
[2]
  T/C: 90 % of control

## Nc1cc(N)n(N)c(=S)n1
[24]
  T/C: 103 % of control
[25]
  T/C: 100 % of control
[17]
  T/C: 104 % of control
[26]
  T/C: 110 % of control
[18]
  T/C: 103 % of control
[27]
  T/C: 108 % of control
[19]
  T/C: 99 % of control
[20]
  T/C: 100 % of control

## CC(=O)ON=C1C=CC(=C(C#N)c2ccccc2)C=C1
[5]
  T/C: 104 % of control
[6]
  T/C: 122 % of control

## CSc1nc2cc(S(=O)(=O)C(F)F)ccc2s1
dose: 6.25 mg/kg/injection, schedule: Q01DX009 (ip), vehicle: Klucel (hydroxypropylcellulose) (HPC)
  T/C: 94 % of control
dose: 12.5 mg/kg/injection, schedule: Q01DX009 (ip), vehicle: Klucel (hydroxypropylcellulose) (HPC)
  T/C: 94 % of control

## Cc1ccc(N2C(=O)CSC2=S)cc1C
dose: 50.0 mg/kg/injection, schedule: Q01DX009 (ip), vehicle: suspension in saline
  T/C: 90 % of control
dose: 100.0 mg/kg/injection, schedule: Q01DX009 (ip), vehicle: suspension in saline
  T/C: 90 % of control
dose: 200.0 mg/kg/injection, schedule: Q01DX009 (ip), vehicle: suspension in saline
  T/C: 103 % of control

## O=c1cc(C(F)(F)F)c2cc3c(cc2o1)NCCC3
[1]
  T/C: 89 % of control
[2]
  T/C: 86 % of control
